Source: patent US20090258873A1, “Novel tetrahydropyridothiophenes” (priority 2005, published 2009)

Assays:
[1] = tested on: RKO (RKOp27) human colon adenocarcinoma cells; test: Alamar Blue cell viability assay, anti-proliferative/cytotoxic activity on proliferating RKOp27 cells; type: cell-based; details: no Ponasterone A, 72 hours incubation, read-out: IC50 RKO p27 uninduced (proliferating)
Description: The anti-proliferative I cytotoxic activity of the compounds described herein, can be tested on subclones of RKO (RKOp27) human colon adenocarcinoma cells (Schmidt et al., Oncogene 19, 2423-2429; 2000) using the Alamar Blue cell viability assay (described in O'Brien et al. Eur J Biochem 267, 5421-5426, 2000). The compounds are dissolved as 20 mM solutions in dimethylsulfoxide (DMSO) and subsequently diluted in semi-logarithmic steps. DMSO dilutions are further diluted 1:100 into Dulbecco's modified Eagle's medium (DMEM) containing 10% fetal calf serum to a final concentration twice as much as the final concentration in the test. RKO subclones are seeded into 96 well flat bottom plates at a density of 5000 cells per well in a volume of 50 μl per well. 24 hours after seeding the 50 μl each of the compound dilutions in DMEM medium are added into each well of the 96 Well plate. Each compound dilution is tested as quadruplicates. Wells containing untreated control cells are filled with 50 μl DMEM medium containing 1% DMSO. The cells are then incubated with the substances for 72 hours at 37° C. in a hunified atmosphere containing 5% carbon dioxide. To determine the viability of the cells, 10 μl of an Alamar Blue solution (Biosource) are added and the fluorescence is measured at an extinction of 544 nm and an emission of 590 nm. For the calculation of the cell viability the emission value from untreated cells is set as 100% viability and the emission rates of treated cells are set in relation to the values of untreated cells. Viabilities are expressed as % values.
The corresponding IC50 values of the compounds for anti-proliferative/cytotoxic activity are determined from the concentration-effect curves.
Representative IC50 values for anti-proliferation/cytotoxicity determined in the mentioned assay follow from the following table A, in which the numbers of the compounds correspond to the numbers of the examples.

[2] = tested on: RKO colon adenocarcinoma cells (RKOp27) arrested by ectopic p27Kip1; test: Alamar Blue cell viability assay on RKOp27 cells arrested by p27Kip1 expression induced with Ponasterone A (cell cycle specific mode of action); type: cell-based; details: Homo sapiens, RKOp27 cells arrested by p27Kip1 induced with 10 μM Ponasterone A, 72 hours incubation, read-out: IC50 RKO p27 induced (arrested)
Description: To determine the cell cycle specific mode of action, subclones of RKO colon adenocarcinoma cells (RKOp27 or RKOp21 as described by Schmidt et al. in Oncogene 19, 2423-2429; 2000) are seeded into 96 well flat bottom plates at a density of 15000 cells per well in a volume of 50 μl per well in DMEM growth medium with 10% FCS containing 10 μM Ponasterone A. 24 hours after seeding the 50 μl each of the compound dilutions in DMEM medium are added into each well of the 96 Well plate. Each compound dilution is tested as quadruplicates. Wells containing untreated control cells are filled with 50 μl DMEM medium containing 1% DMSO. The cells are then incubated with the substances for 72 hours at 37° C. in a humidified atmosphere containing 5% carbon dioxide. To determine the viability of the cells, 10 μl of an Alamar Blue solution (Biosource) are added and the fluorescence was measured at an extinction of 544 nm and an emission of 590 nm. For the calculation of the cell viability the emission value from untreated cells is set as 100% viability and the emission rates of treated cells are set in relation to the values of untreated cells. Viabilities are expressed as % values. Viability is compared of proliferating cells grown in the absence of the inducer Ponasterone A, versus viability of cells arrested by the expression of ectopic p27Kip1 induced by Ponasterone A.

Row | SMILES | IC50 [1] [nM] | IC50 [2] [nM]
1 | CC(CC(=O)Nc1sc2c(c1C#N)CCN(C(=O)Cc1ccncc1)C2)c1ccccc1 (racemic) [Example 24, (RS)—N-[3-Cyano-6-(2-pyridin-4-yl-ethanoyl)-4,5,6,7-tetrahydro-thieno[2,3-c]pyridin-2-yl]-3-phenyl-butyramide] | ≤ 300 | > 100000
2 | Cn1ccnc1CCC(=O)N1CCc2c(sc(NC(=O)CCc3ccccc3)c2C#N)C1 [Example 35, N-{3-Cyano-4-[3-(1-methyl-1H-imidazo-2-yl)-propanoyl]-4,5,6,7-tetrahydro-thieno[2,3-c]pyridin-2-yl}-3-phenyl-propionamide] | ≤ 300 | ≥ 10000
3 | COCCOCC(=O)N1CCc2c(sc(NC(=O)CCc3ccccc3)c2C#N)C1 [Example 5] | 300 to 2000 | > 100000
4 | Cc1cn(CC(=O)N2CCc3c(sc(NC(=O)CC(C)c4ccccc4)c3C#N)C2)c(C)n1 (racemic) [Example 42, (RS)—N-{3-Cyano-6-[2-(2,4-dimethyl-midazol-1-yl)-ethanoy]-4,5,6,7-tetrahydro-thieno[2,3-c]pyridin-2-yl}-3-phenyl-butyramide] | 300 to 2000 | ≥ 10000
5 | N#Cc1c(NC(=O)CCc2ccco2)sc2c1CCN(C(=O)CCc1cccnc1)C2 [Example 12, N-[3-Cyano-4-6-(3-pyridin-3-yl-propanoyl)-4,5,6,7-tetrahydro-thieno[2,3-c]pyridin-2-yl]-3-furan-2-yl-propionamide] | ≤ 300 | > 100000
6 | CCCC(=O)N1CCc2c(sc(NC(=O)CCc3ccco3)c2C#N)C1 [Example 14, N-(6-Butyryl-3-cyano-4,5,6,7-tetrahydro-thieno[2,3-c]pyridin-2-yl)-3-furan-2-yl-propionamide] | ≤ 300 | > 100000
7 | N#Cc1c(NC(=O)CCc2ccccc2)sc2c1CCN(C(=O)CCc1ccncc1)C2 [Example 39, N-[3-Cyano-6-(3-pyridin-4-yl-propanoyl)-4,5,6,7-tetrahydro-thieno[2,3-c]pyridin-2-yl]-3-phenyl-propionamide] | ≤ 300 | > 100000
8 | N#Cc1c(NC(=O)CCc2ccccc2)sc2c1CCN(C(=O)CCc1ccccn1)C2 [Example 30, N-[3-Cyano-6-(3-pyridin-2-yl-propanoyl)-4,5,6,7-tetrahydro-thieno[2,3-c]pyridin-2-yl]-3-phenyl-propionamide] | ≤ 300 | > 100000
9 | CC(CC(=O)Nc1sc2c(c1C#N)CCN(C(=O)Cc1ccccn1)C2)c1ccccc1 (racemic) [Example 22, (RS)—N-[3-Cyano-6-(2-pyridin-2-yl-ethanoyl)-4,5,6,7-tetrahydro-thieno[2,3-c]pyridin-2-yl]-3-phenyl-butyramide] | ≤ 300 | > 100000
10 | N#Cc1c(NC(=O)CCc2ccco2)sc2c1CCN(C(=O)Cc1cccnc1)C2 [Example 11, N-[3-Cyano-6-(2-pyridin-3-yl-ethanoyl)-4,5,6,7-tetrahydro-thieno[2,3-c]pyridin-2-yl]-3-furan-2-yl-propionamide] | ≤ 300 | > 100000
11 | CCCC(=O)N1CCc2c(sc(NC(=O)CC(C)c3ccccc3)c2C#N)C1 (racemic) [Example 27, (RS)—N-(6-Butyryl-3-cyano-4,5,6,7-tetrahydro-thieno[2,3-c]pyridin-2-yl)-3-phenyl-butyramide] | 300 to 2000 | > 100000
12 | CC(CC(=O)Nc1sc2c(c1C#N)CCN(C(=O)CCc1ccncc1)C2)c1ccccc1 (racemic) [Example 36, (RS)—N-[3-Cyano-6-(3-pyridin-4-yl-propanoyl)-4,5,6,7-tetrahydro-thieno[2,3-c]pyridin-2-yl]-3-phenyl-butyramide] | 300 to 2000 | ≥ 10000
13 | COCC(=O)N1CCc2c(sc(NC(=O)CCc3ccco3)c2C#N)C1 [Example 13, N-[3-Cyano-6-(2-methoxy-ethanoyl)-4,5,6,7-tetrahydro-thieno[2,3-c]pyridin-2-yl]-3-furan-2-yl-propionamide] | ≤ 300 | > 100000
14 | Cc1nccn1CC(=O)N1CCc2c(sc(NC(=O)CC(C)c3ccccc3)c2C#N)C1 (racemic) [Example 37, (RS)—N-{3-Cyano-6-[2-(2-methyl-imidazo-1-yl)-ethanoyl]-4,5,6,7-tetrahydro-thieno[2,3-c]pyridin-2-yl}-3-phenyl-butyramide] | ≤ 300 | ≥ 40000
15 | CCCC(=O)N1CCc2c(sc(NC(=O)CCc3ccccc3)c2C#N)C1 [Example 28, N-(6-Butyryl-3-cyano-4,5,6,7-tetrahydro-thieno[2,3-c]pyridin-2-yl)-3-phenyl-propionamide] | ≤ 300 | > 100000
16 | Cc1cn(CC(=O)N2CCc3c(sc(NC(=O)CCc4ccccc4)c3C#N)C2)cn1 [Example 41, N-{3-Cyano-6-[2-(4-methyl-imidazol-1-yl)-ethanoyl]-4,5,6,7-tetrahydro-thieno[2,3-c]pyridin-2-yl}-3-phenyl-propionamide] | ≤ 300 | > 100000
17 | N#Cc1c(NC(=O)CCc2ccccc2)sc2c1CCN(C(=O)CCc1cccnc1)C2 [Example 1, N-[3-Cyano-6-(3-pyridn3-yl-propanoyl)-4,5,6,7-tetrahydro-thieno[2,3-c]pyridin-2-yl]-3-phenyl-propionamide] | 300 to 2000 | > 100000
18 | CC(CC(=O)Nc1sc2c(c1C#N)CCN(C(=O)Cc1cccnc1)C2)c1ccccc1 (racemic) [Example 23, (RS)—N-[3-Cyano-6-(2-pyridin-3-yl-ethanoyl)-4,5,6,7-tetrahydro-thieno[2,3-c]pyridin-2-yl]-3-phenyl-butyramide] | ≤ 300 | > 100000
